PubChem BioAssay AID1963842 (Molecular Pharmacology Branch, DTP, NCI, 2024)

System: 677734-321-R-J1-PDC complex spheroid viability
Test: Anticancer human tumor 677734-321-R-J1-PDC patient-derived soft tissue sarcoma cell line growth inhibition [POLQ]
Details: for IC50: curve of first compound; for viability, T/C: stronger effect = lower value
Procedure, shortened: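 Three-cell-type spheroids modelling solid tumor plus stroma served as the readout system; POL inhibitors were tested individually and in combination, concentration ranges set by clinical Cmax where known.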

[1] = second compound 0.0316 µM, first compound 0.0316 µM
[2] = second compound 0.0316 µM, first compound 0.1 µM
[3] = second compound 0.0316 µM, first compound 0.316 µM
[4] = second compound 0.0316 µM, first compound 1 µM
[5] = second compound 0.0316 µM, first compound 3.16 µM
[6] = second compound 0.0316 µM, first compound 10 µM
[7] = second compound 0.1 µM, first compound 0.0316 µM
[8] = second compound 0.1 µM, first compound 0.1 µM
[9] = second compound 0.1 µM, first compound 0.316 µM
[10] = second compound 0.1 µM, first compound 1 µM
[11] = second compound 0.1 µM, first compound 3.16 µM
[12] = second compound 0.1 µM, first compound 10 µM
[13] = second compound 0.316 µM, first compound 0.0316 µM
[14] = second compound 0.316 µM, first compound 0.1 µM
[15] = second compound 0.316 µM, first compound 0.316 µM
[16] = second compound 0.316 µM, first compound 1 µM
[17] = second compound 0.316 µM, first compound 3.16 µM
[18] = second compound 0.316 µM, first compound 10 µM
[19] = second compound 1 µM, first compound 0.0316 µM
[20] = second compound 1 µM, first compound 0.1 µM
[21] = second compound 1 µM, first compound 0.316 µM
[22] = second compound 1 µM, first compound 1 µM
[23] = second compound 1 µM, first compound 3.16 µM
[24] = second compound 1 µM, first compound 10 µM
[25] = second compound 3.16 µM, first compound 0.0316 µM
[26] = second compound 3.16 µM, first compound 0.1 µM
[27] = second compound 3.16 µM, first compound 0.316 µM
[28] = second compound 3.16 µM, first compound 1 µM
[29] = second compound 3.16 µM, first compound 3.16 µM
[30] = second compound 3.16 µM, first compound 10 µM
[31] = second compound 10 µM, first compound 0.0316 µM
[32] = second compound 10 µM, first compound 0.1 µM
[33] = second compound 10 µM, first compound 0.316 µM
[34] = second compound 10 µM, first compound 1 µM
[35] = second compound 10 µM, first compound 3.16 µM
[36] = second compound 10 µM, first compound 10 µM
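Also: spheroids exposed to compounds for one week.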
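For viability, T/C in this document: 100% = vehicle DMSO treated spheroids.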

Question: For `C=CC(=O)N1CCN(c2nc(=O)n(-c3c(C)ccnc3C(C)C)c3nc(-c4c(O)cccc4F)c(F)cc23)C(C)C1` (stereo unspecified) + COC1C(OC(N)=O)C(O)C(Oc2ccc3c(O)c(NC(=O)c4ccc(O)c(CC=C(C)C)c4)c(=O)oc3c2C)OC1(C)C, which IC50 (second compound 0.0316 µM) is on record?
Answer: > 10 µM

Question: What about the IC50 (second compound 0.1 µM) of the same compound?
Answer: > 10 µM

Question: And the IC50 (second compound 0.316 µM)?
Answer: > 10 µM

Question: And the IC50 (second compound 1 µM)?
Answer: > 10 µM

Question: What about the IC50 (second compound 3.16 µM) of the same compound?
Answer: > 10 µM

Question: What about the IC50 (second compound 10 µM) of the same compound?
Answer: > 10 µM

Question: And the viability, T/C [1]?
Answer: 109%

Question: What about the viability, T/C [2] of the same compound?
Answer: 92.4%

Question: What about the viability, T/C [3] of the same compound?
Answer: 102%

Question: And the viability, T/C [4]?
Answer: 97.1%

Question: And the viability, T/C [5]?
Answer: 104%

Question: And the viability, T/C [6]?
Answer: 86.4%

Question: What about the viability, T/C [7] of the same compound?
Answer: 102%

Question: And the viability, T/C [8]?
Answer: 104%

Question: And the viability, T/C [9]?
Answer: 103%

Question: What about the viability, T/C [10] of the same compound?
Answer: 102%

Question: What about the viability, T/C [11] of the same compound?
Answer: 99.9%

Question: And the viability, T/C [12]?
Answer: 81.7%

Question: What about the viability, T/C [13] of the same compound?
Answer: 102%

Question: And the viability, T/C [14]?
Answer: 97.3%

Question: What about the viability, T/C [15] of the same compound?
Answer: 106%

Question: What about the viability, T/C [16] of the same compound?
Answer: 101%

Question: What about the viability, T/C [17] of the same compound?
Answer: 107%

Question: What about the viability, T/C [18] of the same compound?
Answer: 84.8%

Question: And the viability, T/C [19]?
Answer: 98.4%

Question: And the viability, T/C [20]?
Answer: 99.3%

Question: And the viability, T/C [21]?
Answer: 104%

Question: What about the viability, T/C [22] of the same compound?
Answer: 113%

Question: What about the viability, T/C [23] of the same compound?
Answer: 105%

Question: And the viability, T/C [24]?
Answer: 89.2%

Question: What about the viability, T/C [25] of the same compound?
Answer: 102%

Question: And the viability, T/C [26]?
Answer: 101%

Question: And the viability, T/C [27]?
Answer: 105%

Question: What about the viability, T/C [28] of the same compound?
Answer: 106%

Question: And the viability, T/C [29]?
Answer: 106%

Question: And the viability, T/C [30]?
Answer: 80.7%

Question: And the viability, T/C [31]?
Answer: 107%

Question: And the viability, T/C [32]?
Answer: 103%

Question: And the viability, T/C [33]?
Answer: 96%

Question: And the viability, T/C [34]?
Answer: 106%

Question: And the viability, T/C [35]?
Answer: 95.8%

Question: And the viability, T/C [36]?
Answer: 86.7%

Question: Which results are given for `CC(C)n1c(=O)n(C)c2cnc3cc(F)c(-c4ccc(OCCCN5CCCCC5)nc4)cc3c21` + COC1C(OC(N)=O)C(O)C(Oc2ccc3c(O)c(NC(=O)c4ccc(O)c(CC=C(C)C)c4)c(=O)oc3c2C)OC1(C)C?
Answer: IC50 (second compound 0.0316 µM): > 10 µM; IC50 (second compound 0.1 µM): > 10 µM; IC50 (second compound 0.316 µM): > 10 µM; IC50 (second compound 1 µM): > 10 µM; IC50 (second compound 3.16 µM): > 10 µM; IC50 (second compound 10 µM): > 10 µM; viability, T/C [1]: 117%; viability, T/C [2]: 104%; viability, T/C [3]: 109%; viability, T/C [4]: 107%; viability, T/C [5]: 111%; viability, T/C [6]: 110%; viability, T/C [7]: 104%; viability, T/C [8]: 109%; viability, T/C [9]: 106%; viability, T/C [10]: 111%; viability, T/C [11]: 117%; viability, T/C [12]: 101%; viability, T/C [13]: 108%; viability, T/C [14]: 107%; viability, T/C [15]: 106%; viability, T/C [16]: 113%; viability, T/C [17]: 112%; viability, T/C [18]: 106%; viability, T/C [19]: 108%; viability, T/C [20]: 102%; viability, T/C [21]: 113%; viability, T/C [22]: 113%; viability, T/C [23]: 109%; viability, T/C [24]: 107%; viability, T/C [25]: 107%; viability, T/C [26]: 107%; viability, T/C [27]: 106%; viability, T/C [28]: 115%; viability, T/C [29]: 104%; viability, T/C [30]: 107%; viability, T/C [31]: 109%; viability, T/C [32]: 106%; viability, T/C [33]: 111%; viability, T/C [34]: 113%; viability, T/C [35]: 106%; viability, T/C [36]: 102%

Question: Which IC50 (second compound 0.0316 µM) does the source give for `CC1COCCN1c1cc(C2(O)CC3CCC(C2)O3)c2cnn(-c3ccn[nH]3)c2n1` (stereo unspecified) + COC1C(OC(N)=O)C(O)C(Oc2ccc3c(O)c(NC(=O)c4ccc(O)c(CC=C(C)C)c4)c(=O)oc3c2C)OC1(C)C here?
Answer: 0.131 µM

Question: And the IC50 (second compound 0.1 µM)?
Answer: 0.15 µM

Question: What about the IC50 (second compound 0.316 µM) of the same compound?
Answer: 0.0872 µM

Question: What about the IC50 (second compound 1 µM) of the same compound?
Answer: 0.115 µM

Question: And the IC50 (second compound 3.16 µM)?
Answer: 0.097 µM

Question: And the IC50 (second compound 10 µM)?
Answer: 0.0858 µM

Question: What about the viability, T/C [1] of the same compound?
Answer: 87.1%

Question: What about the viability, T/C [2] of the same compound?
Answer: 58.1%

Question: What about the viability, T/C [3] of the same compound?
Answer: 24.2%

Question: What about the viability, T/C [4] of the same compound?
Answer: 16.8%

Question: And the viability, T/C [5]?
Answer: 17.9%

Question: And the viability, T/C [6]?
Answer: 16.3%

Question: What about the viability, T/C [7] of the same compound?
Answer: 92.9%

Question: And the viability, T/C [8]?
Answer: 64.7%

Question: And the viability, T/C [9]?
Answer: 22.7%

Question: What about the viability, T/C [10] of the same compound?
Answer: 16.4%

Question: What about the viability, T/C [11] of the same compound?
Answer: 13.5%

Question: What about the viability, T/C [12] of the same compound?
Answer: 13.3%

Question: What about the viability, T/C [13] of the same compound?
Answer: 80.2%

Question: What about the viability, T/C [14] of the same compound?
Answer: 46.2%

Question: And the viability, T/C [15]?
Answer: 22.6%

Question: What about the viability, T/C [16] of the same compound?
Answer: 19.1%

Question: And the viability, T/C [17]?
Answer: 14.7%

Question: And the viability, T/C [18]?
Answer: 13.8%

Question: What about the viability, T/C [19] of the same compound?
Answer: 92.5%

Question: And the viability, T/C [20]?
Answer: 54.2%

Question: What about the viability, T/C [21] of the same compound?
Answer: 18.6%

Question: And the viability, T/C [22]?
Answer: 15.9%

Question: What about the viability, T/C [23] of the same compound?
Answer: 17.1%

Question: And the viability, T/C [24]?
Answer: 14.2%

Question: And the viability, T/C [25]?
Answer: 85.3%

Question: What about the viability, T/C [26] of the same compound?
Answer: 49%

Question: What about the viability, T/C [27] of the same compound?
Answer: 25.4%

Question: And the viability, T/C [28]?
Answer: 16.7%

Question: And the viability, T/C [29]?
Answer: 15.2%

Question: What about the viability, T/C [30] of the same compound?
Answer: 14.6%

Question: And the viability, T/C [31]?
Answer: 89.6%

Question: What about the viability, T/C [32] of the same compound?
Answer: 43.9%

Question: And the viability, T/C [33]?
Answer: 21.3%

Question: What about the viability, T/C [34] of the same compound?
Answer: 15.6%

Question: What about the viability, T/C [35] of the same compound?
Answer: 16.1%

Question: What about the viability, T/C [36] of the same compound?
Answer: 15.4%
